According to US20220323406A1, “METHODS AND COMPOSITIONS FOR DIFFERENTIATING STEM CELLS” (Massachusetts Institute of Technology, priority 2019, published 2022):

Experiments:
[1] = system: ENR+CD organoids (ISC to Paneth cell differentiation); experiment: Primary screen: basal (non-stimulated) lysozyme secretion LYZ.NS, 2.5-D 384-well ENR+CD organoid differentiation; format: cell-based, mouse
From the text: (§1) High-throughput screening.

[2] = system: ENR+CD organoids (ISC to Paneth cell differentiation); experiment: Primary screen: CCh-stimulated lysozyme secretion LYZ.S, 2.5-D 384-well ENR+CD organoid differentiation; format: cell-based, mouse; conditions: primary screen
From the text: as §1

ENR+CD organoids = experiment: Primary screen: ATP (CellTiter-Glo 3D, CTG) cell number/viability, 2.5-D 384-well ENR+CD organoids; conditions: primary screen; for Z.CTG: standard z score;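 as to all read-outs here: compounds given at plating and again on day 3 over a 6-day differentiation from ENR+CV stem-cell-enriched precursors, ATP measured on day 6, plate median as control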
[3] = dose 0.08 uM, FC vs plate median
[4] = dose 0.40 uM, FC vs plate median
[5] = dose 2.00 uM, FC vs plate median
[6] = dose 10.00 uM, FC vs plate median

| SMILES | Dose.FC.LYZ.NS ([1]; primary screen, dose 0.08 uM) | Z.LYZ.NS (standard z score) ([1]; primary screen, dose 0.08 uM) | Dose.FC.LYZ.NS ([1]; primary screen, dose 0.40 uM) | Z.LYZ.NS (standard z score) ([1]; primary screen, dose 0.40 uM) | Dose.FC.LYZ.NS ([1]; primary screen, dose 2.00 uM) | Z.LYZ.NS (standard z score) ([1]; primary screen, dose 2.00 uM) | Dose.FC.LYZ.NS ([1]; primary screen, dose 10.00 uM) | Z.LYZ.NS (standard z score) ([1]; primary screen, dose 10.00 uM) | Dose.FC.LYZ.S ([2]; dose 0.08 uM) | Dose.FC.LYZ.S ([2]; dose 0.40 uM) | Dose.FC.LYZ.S ([2]; dose 2.00 uM) | Dose.FC.LYZ.S ([2]; dose 10.00 uM) | Dose.FC.CTG (ENR+CD organoids; dose 0.08 uM) | Z.CTG (standard z score) (ENR+CD organoids; dose 0.08 uM) | Dose.FC.CTG (ENR+CD organoids; dose 0.40 uM) | Z.CTG (standard z score) (ENR+CD organoids; dose 0.40 uM) | Dose.FC.CTG (ENR+CD organoids; dose 2.00 uM) | Z.CTG (standard z score) (ENR+CD organoids; dose 2.00 uM) | Dose.FC.CTG (ENR+CD organoids; dose 10.00 uM) | Z.CTG (standard z score) (ENR+CD organoids; dose 10.00 uM) | further results |
| --- | --- | --- | --- | --- | --- | --- | --- | --- | --- | --- | --- | --- | --- | --- | --- | --- | --- | --- | --- | --- | --- |
| CC(C)(C)c1cc(/C=C(\C#N)C(N)=S)cc(C(C)(C)C)c1O [Tyrphostin AG 879] | 0.010 log2 fold change | 0.088 | −0.078 log2 fold change | −0.680 | −0.080 log2 fold change | −0.698 | −0.110 log2 fold change | −0.960 | −0.083 log2 fold change | −0.084 log2 fold change | −0.051 log2 fold change | −0.123 log2 fold change | −0.347 log2 fold change | −0.828 | −0.238 log2 fold change | −0.569 | −0.232 log2 fold change | −0.554 | −0.368 log2 fold change | −0.879 |  |
| Cc1cc([C@@H](C)Nc2ccccc2C(=O)O)c2nc(N3CCOCC3)cc(=O)n2c1 [AZD6482] | 0.108 log2 fold change | 0.944 | 0.076 log2 fold change | 0.660 | −0.130 log2 fold change | −1.129 | −0.248 log2 fold change | −2.160 | 0.182 log2 fold change | 0.156 log2 fold change | −0.114 log2 fold change | −0.253 log2 fold change | 0.240 log2 fold change | 0.572 | 0.223 log2 fold change | 0.533 | −0.509 log2 fold change | −1.215 | −1.203 log2 fold change | −2.874 |  |
| NC(=O)Nc1sc(-c2ccc(F)cc2)cc1C(N)=O [TPCA-1] | 0.072 log2 fold change | 0.627 | −0.047 log2 fold change | −0.413 | −0.059 log2 fold change | −0.514 | −0.197 log2 fold change | −1.711 | 0.041 log2 fold change | −0.029 log2 fold change | −0.054 log2 fold change | −0.294 log2 fold change | −0.061 log2 fold change | −0.146 | −0.004 log2 fold change | −0.010 | −0.005 log2 fold change | −0.012 | −0.531 log2 fold change | −1.269 |  |
| COc1cc(N2CCC(N3CCN(C)CC3)CC2)ccc1Nc1ncc(Cl)c(Nc2ccccc2P(C)(C)=O)n1 [AP26113] | −0.013 log2 fold change | −0.116 | −0.062 log2 fold change | −0.541 | −0.196 log2 fold change | −1.706 | −0.272 log2 fold change | −2.370 | 0.109 log2 fold change | −0.038 log2 fold change | −0.244 log2 fold change | −0.343 log2 fold change | −0.054 log2 fold change |  | 0.061 log2 fold change |  | −0.558 log2 fold change |  | −1.680 log2 fold change |  |  |
| COc1ccccc1OCCNCC(O)COc1cccc2[nH]c3ccccc3c12 (stereo not drawn) [Carvedilol] | 0.002 log2 fold change |  | −0.020 log2 fold change |  | 0.099 log2 fold change |  | −0.053 log2 fold change |  | −0.009 log2 fold change | −0.079 log2 fold change | −0.087 log2 fold change | 0.019 log2 fold change | 0.057 log2 fold change |  | −0.014 log2 fold change |  | −0.151 log2 fold change |  | −0.242 log2 fold change |  | Z.LYZ.NS ([1]; primary screen, standard z score, dose 0.08 uM): 0.021; Z.LYZ.NS ([1]; primary screen, standard z score, dose 0.40 uM): −0.175; Z.LYZ.NS ([1]; primary screen, standard z score, dose 2.00 uM): 0.866; Z.LYZ.NS ([1]; primary screen, standard z score, dose 10.00 uM): −0.464 |
| O=c1oc2cc(O)ccc2s1 [Tioxolone] | 0.099 log2 fold change | 0.864 | 0.012 log2 fold change | 0.101 | 0.053 log2 fold change | 0.462 | 0.023 log2 fold change | 0.202 | 0.149 log2 fold change | 0.000 log2 fold change | 0.023 log2 fold change | 0.028 log2 fold change | 0.246 log2 fold change |  | 0.089 log2 fold change |  | 0.044 log2 fold change |  | 0.328 log2 fold change |  |  |
| CCN(CC)CCCC(C)Nc1nc(C)cc(Nc2ccc3nc(C)cc(N)c3c2)n1 (stereo not drawn) [NSC 23766] |  |  |  |  |  |  |  |  |  |  |  |  |  |  |  |  |  |  |  |  | Z.LYZ.NS ([1]; primary screen, dose 0.08 uM, standard z score): 0.701; Z.LYZ.NS ([1]; primary screen, dose 0.40 uM, standard z score): 0.380; Z.LYZ.NS ([1]; primary screen, dose 2.00 uM, standard z score): 0.506; Z.LYZ.NS ([1]; primary screen, dose 10.00 uM, standard z score): 0.080; Dose.FC.LYZ.NS ([1]; primary screen; dose 0.08 uM; FC vs plate median): 0.081 log2 fold change; Dose.FC.LYZ.NS ([1]; primary screen; dose 0.40 uM; FC vs plate median): 0.044 log2 fold change; Dose.FC.LYZ.NS ([1]; primary screen; dose 2.00 uM; FC vs plate median): 0.058 log2 fold change; Dose.FC.LYZ.NS ([1]; primary screen; dose 10.00 uM; FC vs plate median): 0.009 log2 fold change; Dose.FC.LYZ.S [2, 3]: 0.080 log2 fold change; Dose.FC.LYZ.S [2, 4]: 0.090 log2 fold change; Dose.FC.LYZ.S [2, 5]: 0.031 log2 fold change; Dose.FC.LYZ.S [2, 6]: 0.030 log2 fold change; Z.CTG (ENR+CD organoids; dose 0.08 uM): 0.103; Z.CTG (ENR+CD organoids; dose 0.40 uM): 0.406; Z.CTG (ENR+CD organoids; dose 2.00 uM): 0.279; Z.CTG (ENR+CD organoids; dose 10.00 uM): 0.774; Dose.FC.CTG (ENR+CD organoids; [3]): 0.043 log2 fold change; Dose.FC.CTG (ENR+CD organoids; [4]): 0.170 log2 fold change; Dose.FC.CTG (ENR+CD organoids; [5]): 0.117 log2 fold change; Dose.FC.CTG (ENR+CD organoids; [6]): 0.324 log2 fold change |
| CCn1c(=O)c2c(nc(/C=C/c3ccc(OC)c(OC)c3)n2C)n(CC)c1=O [Istradefylline] |  | −0.131 |  | −0.304 |  | −0.022 |  | −0.353 |  |  |  |  |  |  |  |  |  |  |  |  | Dose.FC.LYZ.NS (log2 fold change) ([1]; primary screen, dose 0.08 uM): −0.015; Dose.FC.LYZ.NS (log2 fold change) ([1]; primary screen, dose 0.40 uM): −0.035; Dose.FC.LYZ.NS (log2 fold change) ([1]; primary screen, dose 2.00 uM): −0.003; Dose.FC.LYZ.NS (log2 fold change) ([1]; primary screen, dose 10.00 uM): −0.041; Dose.FC.LYZ.S (log2 fold change) ([2]; dose 0.08 uM): −0.029; Dose.FC.LYZ.S (log2 fold change) ([2]; dose 0.40 uM): −0.087; Dose.FC.LYZ.S (log2 fold change) ([2]; dose 2.00 uM): −0.096; Dose.FC.LYZ.S (log2 fold change) ([2]; dose 10.00 uM): −0.057; Dose.FC.CTG (log2 fold change) (ENR+CD organoids; dose 0.08 uM): −0.045; Dose.FC.CTG (log2 fold change) (ENR+CD organoids; dose 0.40 uM): 0.066; Dose.FC.CTG (log2 fold change) (ENR+CD organoids; dose 2.00 uM): −0.157; Dose.FC.CTG (log2 fold change) (ENR+CD organoids; dose 10.00 uM): −0.038 |
